Data published in BigSolDB 2.1.

NC12CC3CC(C1)CC(O)(C3)C2
solubility (mole fraction)
Conditions	in THF	in ethanol	in methanol	in n-butanol	in n-propanol	in water
278.15 K	0.0201	0.0608	0.0136	0.0626	0.133	0.0125
283.15 K	0.0213	0.0768	0.0176	0.0657	0.145	0.0146
288.15 K	0.0229	0.0974	0.0209	0.0679	0.157	0.0173
293.15 K	0.0247	0.123	0.0253	0.0704	0.171	0.0207
298.15 K	0.0269	0.151	0.0297	0.0736	0.185	0.0233
303.15 K	0.0294	0.183	0.0352	0.0761	0.2	0.0266
308.15 K	0.0323	0.219	0.0422	0.0799	0.216	0.0306
313.15 K	0.0356	0.256	0.0509	0.0827	0.234	0.0354
318.15 K	0.0394	0.296	0.0618	0.0868	0.252	0.0413
323.15 K	0.0439	0.337	0.0754	0.0904	0.272	0.0486
328.15 K	0.049	0.389	0.0926	0.0943	0.293	0.0575
